Values joined by “and” are separate entries in the source; they are usually repeats but may differ in a detail not shown here. Equal values may be shown once.
Columns and labels:
[1] = system: UUO model of kidney fibrosis; experiment: Unilateral ureteral obstruction (UUO) model of kidney fibrosis: kidney collagen 1A1 and collagen 3A1 expression by real-time PCR; assay type: in vivo, mice; conditions: for Collagen 3A1 (Normalized Expression) Mean / Collagen 1A1 (Normalized Expression) Mean: group mean; for Collagen 1A1 (Normalized Expression) / Collagen 3A1 (Normalized Expression): individual animals, 20 mg/kg
Method in brief: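 Fibrosis induced by unilateral ureter ligation, groups of 8; anti-miR-21 compounds dosed at 20 mg/kg around surgery (days −3, −1, +5 or −5, −3, +3; repeat study subcutaneous at −5, −2, +3). Kidneys taken on day 10 or 11; Col1A1 and Col3A1 mRNA measured by real-time PCR, normalized to GAPDH and, in one study, also to sham.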

[2] = system: model of ischemia reperfusion injury (IRI); experiment: Unilateral IRI model: collagen area fraction of kidney tissue; assay type: in vivo, mouse; conditions: for reduction in collagen area fraction (significance): IRI; for Collagen Area Fraction (#) Mean: group mean; for Collagen Area Fraction (#): 20 mg/kg
Procedure: A model of ischemia reperfusion injury (IRI) is created in the mouse through unilateral or bilateral clamping of kidney arteries, which leads to tubule damage, inflammation, and fibrosis. Kidney dysfunction can occur either early (<5 days) or late (>7 days) in this model, with the early time points useful to test candidate agents for the treatment of acute kidney injury, and the later time points useful to model chronic fibrosis.
Anti-miR-21 compounds were tested in the unilateral IRI model. Unilateral IRI was induced for a period of 30 minutes. Treatment groups were as follows: sham IRI procedure; IRI with PBS administered subcutaneously; IRI with anti-miR-21 compound 25070 administered intraperitoneally at a dose of 20 mg/kg; the 2′-fluoro/2′-MOE modified anti-miR-21 25919 administered intraperitoneally at a dose of 20 mg/kg; and a 2′-fluoro/2′ modified mismatch anti-miR-21 (having three mismatches to the sequence of miR-21) 25319 administered intraperitoneally at a dose of 20 mg/kg. PBS or anti-miR compound was administered on days 5, 6, and 7 following IRI, and animals were sacrificed 14 days after IRI. As anti-miR compound is administered 5 days following the injury to the kidney, or later, when fibrosis has already occurred to some extent, this treatment regimen is considered a therapeutic regimen, rather than a prophylactic regimen.
Kidney tissue was collected for analysis of collagen 1A1 and collagen 3A1 expression (shown in Table 0), and collagen area fraction (shown in Table P).
A similar study was performed with the same treatment groups and additional days of treatment. In this study, treatments were administered intraperitoneally at days 5, 6, 7, 14, and 21 following the IRI procedure Animals were sacrificed on Day 27, and kidney tissue was collected for analysis of collagen 1A1 and collagen 3A1 expression, as well as collagen area fraction.

[3] = Table K, UUO mice, 20 mg/kg at days -3, -1, +5, kidney at day 11, UUO-PBS mean 87.2
[4] = Table K, UUO mice, 20 mg/kg at days -3, -1, +5, kidney at day 11, UUO-PBS mean 114.9
[5] = Table K, UUO mice, 20 mg/kg at days -3, -1, +5 (prophylactic), kidney at day 11, real-time PCR normalized to GAPDH then sham
[6] = Table L, repeat UUO study, 20 mg/kg SC, prophylactic
[7] = Table M, UUO, 25070 20 mg/kg s.c. 5 and 2 days prior to and 3 days after UUO, irbesartan PO daily days 0-7, sacrifice Day 10
[8] = meta-analysis of UUO studies, 20 mg/kg at days -3, -1, +5, kidney at day 11
[9] = repeated UUO study, subcutaneously 20 mg/kg, prophylactic
[10] = Table P, unilateral IRI, 20 mg/kg intraperitoneally on days 5, 6, 7, day 14, IRI-PBS mean 15.1
[11] = Table P, individual animals, unilateral IRI, 20 mg/kg intraperitoneally on days 5, 6, 7, day 14
[12] = unilateral IRI mouse, 20 mg/kg intraperitoneally on days 5, 6, 7, 14, and 21, sacrificed Day 27
[13] = individual animals (not same as PCR), unilateral IRI mouse, 20 mg/kg intraperitoneally on days 5, 6, 7, 14, and 21, sacrificed Day 27

With “AECSATCSAGTCSTGAUSAAGCSTAE (ACATCAGTCTGATAAGCTA; modified nucleosides, phosphorothioate linkages, chemistry not fully specified) [Compound 25070]” the “Collagen 3A1 (Normalized Expression) Mean” value [1, 3] was 55.5, the “Collagen 1A1 (Normalized Expression) Mean” value [1, 4] was 81.0 and the “Collagen 1A1 (Normalized Expression)” value [1, 5] was 67.7 and 97.7 and 88.8 and 95.9 and 71.4 and 44.5 and 73.0 and 109.4. For the same sequence, the “Collagen 3A1 (Normalized Expression)” value [1, 5] was 36.4 and 75.6 and 47.3 and 55.5 and 63.3 and 28.5 and 64.2 and 72.9, the “Collagen 3A1 (Normalized Expression) Mean” value ([1]; Table L, repeat UUO study, 20 mg/kg SC, prophylactic, UUO-PBS mean 58.8) was 42.4 and the “Collagen 1A1 (Normalized Expression) Mean” value ([1]; Table L, repeat UUO study, 20 mg/kg SC, prophylactic, UUO-PBS mean 74.3) was 30.2. For the same sequence, the “Collagen 1A1 (Normalized Expression)” value [1, 6] was 13.9 and 9.2 and 32.3 and 57.2 and 47.6 and 26.1 and 35.0 and 20.4, the “Collagen 3A1 (Normalized Expression)” value [1, 6] was 34.9 and 47.4 and 25.3 and 38.0 and 47.9 and 54.3 and 56.1 and 35.2 and the “Collagen 3A1 (Normalized Expression) Mean” value ([1]; Table M, UUO, 25070 20 mg/kg s.c., irbesartan PO daily days 0-7, Day 10, UUO-PBS 93.2, Tween/MC vehicle 132.4) was 53.7. The “Collagen 1A1 (Normalized Expression) Mean” value ([1]; Table M, UUO, 25070 20 mg/kg s.c., irbesartan PO daily days 0-7, Day 10, UUO-PBS 129.6, Tween/MC vehicle 150.2) was 64.2, the “Collagen 1A1 (Normalized Expression)” value [1, 7] was 87.5 and 67.4 and 22.2 and 61.9 and 42.0 and 69.2 and 68.4 and 95.2 and the “Collagen 3A1 (Normalized Expression)” value [1, 7] was 38.6 and 56.9 and 77.2 and 50.7 and 76.4 and 49.7 and 44.3 and 35.9. The “reduction in Col3a1 expression (significance)” value ([1]; UUO, comparison with irbesartan, sacrifice Day 10) was “statistically significant reductions”, the “reduction in Col1A1 expression relative to saline-treated animals (significance)” value ([1]; UUO, comparison with irbesartan, sacrifice Day 10, p<0.05 by one-way ANOVA) was “statistically significant reduction” and the “reduction in collagen expression (in words)” value ([1]; meta-analysis of UUO studies, 20 mg/kg at days -3, -1, +5) was “greatest potency”. For the same sequence, the “inhibition of collagen 1A1” value [1, 8] was 40%, the “inhibition of collagen 3A1” value [1, 8] was 30% and the “collagen 1A1 expression (in words)” value [1, 9] was “potent inhibitor of collagen 1A1 and collagen 3A1 expression”. The “collagen 3A1 expression (in words)” value [1, 9] was “potent inhibitor of collagen 1A1 and collagen 3A1 expression”, the “reduction in collagen area fraction (significance)” value ([2]; 20 mg/kg intraperitoneally on days 5, 6, and 7, sacrifice 14 days after IRI) was “statistically significant reduction” and the “reduction in collagen area fraction (significance)” value ([2]; intraperitoneally at days 5, 6, 7, 14, and 21, sacrifice Day 27) was “statistically significant reduction”. For the same sequence, the “Collagen Area Fraction (#) Mean” value [2, 10] was 9.7 #, the “Collagen Area Fraction (#)” value [2, 11] was 10.266 # and 11.772 # and 10.267 # and 8.404 # and 7.862 # and 6.975 # and 8.381 # and 13.773 # and the “Collagen Area Fraction (#) Mean” value [2, 12] was 10.1. The “Collagen Area Fraction (#)” value [2, 13] was 7.354 and 9.241 and 9.589 and 11.573 and 8.182 and 10.695 and 13.978 and 10.12.
“UECEAFAFCFAFUFCFAFGFUFCEUEGEAFUFAFAFGFCFUEAE (antisense TCAACATCAGTCTGATAAGCTA; listed as DNA, chemistry not fully specified) [Compound 25919, reference compound]” was tested, and the “Collagen 3A1 (Normalized Expression) Mean” value [1, 3] was 56.9, the “Collagen 1A1 (Normalized Expression) Mean” value [1, 4] was 86.6 and the “Collagen 1A1 (Normalized Expression)” value [1, 5] was 150.2 and 54.2 and 84.6 and 67.7 and 78.7 and 62.2 and 89.2 and 106.2. The “Collagen 3A1 (Normalized Expression)” value [1, 5] was 67.1 and 33.9 and 87.6 and 47.3 and 67.7 and 46.7 and 47.0 and 57.8, the “Collagen Area Fraction (#) Mean” value [2, 10] was 8.2 # and the “Collagen Area Fraction (#)” value [2, 11] was 7.093 # and 8.254 # and 8.095 # and 8.559 # and 8.681 # and 6.31 # and 8.416 # and 9.905 #. For the same sequence, the “Collagen Area Fraction (#) Mean” value [2, 12] was 12.8 and the “Collagen Area Fraction (#)” value [2, 13] was 11.882 and 9.755 and 9.506 and 12.654 and 20.319 and 11.551 and 12.224 and 14.468.

Source: US20120270928A1, “MICRORNA COMPOUNDS AND METHODS FOR MODULATING MIR-21 ACTIVITY” (REGULUS THERAPEUTICS INC., priority 2011, published 2012)
